Here are results for three compounds from ChEMBL document CHEMBL5653631, “A Potent and Selective ULK1 Inhibitor Suppresses Autophagy and Sensitizes Cancer Cells to Nutrient Stress” (iScience, 2018).

SMILES strings stand for the structures.

Assay [1] deals with T1, Mitogen-activated protein kinase kinase kinase 7 (Homo sapiens) (UniProt O43318).
T1 sequence (whole entry): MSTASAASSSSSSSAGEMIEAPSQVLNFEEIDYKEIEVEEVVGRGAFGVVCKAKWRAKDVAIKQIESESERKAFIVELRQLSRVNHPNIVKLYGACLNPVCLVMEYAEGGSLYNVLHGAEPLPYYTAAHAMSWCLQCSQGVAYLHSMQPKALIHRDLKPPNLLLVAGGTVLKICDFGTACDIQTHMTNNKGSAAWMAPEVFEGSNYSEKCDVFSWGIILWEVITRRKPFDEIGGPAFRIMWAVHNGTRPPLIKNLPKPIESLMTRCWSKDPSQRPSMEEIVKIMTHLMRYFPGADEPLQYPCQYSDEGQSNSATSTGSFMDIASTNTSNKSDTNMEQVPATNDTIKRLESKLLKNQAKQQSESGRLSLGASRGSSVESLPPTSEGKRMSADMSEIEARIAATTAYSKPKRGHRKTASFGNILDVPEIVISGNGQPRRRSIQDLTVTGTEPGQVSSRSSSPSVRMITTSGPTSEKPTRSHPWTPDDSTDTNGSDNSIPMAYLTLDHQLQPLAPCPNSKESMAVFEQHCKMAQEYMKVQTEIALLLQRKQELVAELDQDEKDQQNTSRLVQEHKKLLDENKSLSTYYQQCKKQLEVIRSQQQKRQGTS
The assay is described as follows: Inhibition of human recombinant TAK1 at 40 nM related to control ULK1.

In assay [2] the target is Serine/threonine-protein kinase tousled-like 2 (Homo sapiens) (UniProt Q86UE8). The assay is described as follows: Inhibition of human recombinant TLK2 at 40 nM related to control ULK1.
Assay [3] deals with Dual specificity tyrosine-phosphorylation-regulated kinase 1A (Homo sapiens) (UniProt Q13627). Kind of assay: Inhibition of human recombinant DYRK1A at 500 nM in presence of ATP by radiometric assay relative to control.
The target in assay [4] is G protein-coupled receptor kinase 6 (Homo sapiens) (UniProt P43250). The assay is described as follows: Inhibition of human recombinant GPRK6 at 500 nM related to control ULK1.
The target of assay [5] is TRAF2 and NCK-interacting protein kinase (Homo sapiens) (UniProt Q9UKE5). The assay is described as follows: Inhibition of human recombinant TNIK at 500 nM in presence of ATP by radiometric assay relative to control.
For assay [6], the target named is T2, Serine/threonine-protein kinase ICK (Homo sapiens) (UniProt Q9UPZ9).
T2 sequence (whole entry): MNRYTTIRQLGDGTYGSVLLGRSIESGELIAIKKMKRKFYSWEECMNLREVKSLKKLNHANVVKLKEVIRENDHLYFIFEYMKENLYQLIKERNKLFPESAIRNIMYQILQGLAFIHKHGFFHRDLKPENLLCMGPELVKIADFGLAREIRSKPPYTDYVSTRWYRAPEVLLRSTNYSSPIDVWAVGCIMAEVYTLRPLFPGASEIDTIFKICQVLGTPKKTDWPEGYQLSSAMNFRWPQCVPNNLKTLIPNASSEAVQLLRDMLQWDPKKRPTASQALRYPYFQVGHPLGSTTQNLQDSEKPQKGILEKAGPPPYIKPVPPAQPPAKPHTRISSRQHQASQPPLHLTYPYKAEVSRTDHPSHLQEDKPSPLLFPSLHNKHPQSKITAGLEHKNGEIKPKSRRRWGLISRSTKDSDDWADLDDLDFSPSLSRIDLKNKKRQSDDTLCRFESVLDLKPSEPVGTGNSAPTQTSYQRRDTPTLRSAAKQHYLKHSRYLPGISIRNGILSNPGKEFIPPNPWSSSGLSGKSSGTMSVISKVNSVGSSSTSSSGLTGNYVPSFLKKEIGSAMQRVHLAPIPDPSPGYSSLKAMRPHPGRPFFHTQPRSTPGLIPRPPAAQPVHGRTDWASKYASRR
Kind of assay: Inhibition of human recombinant ICK at 500 nM related to control ULK1.

The target in assay [7] is T3, Serine/threonine-protein kinase ULK2 (Homo sapiens) (UniProt Q8IYT8).
T3 sequence (whole entry): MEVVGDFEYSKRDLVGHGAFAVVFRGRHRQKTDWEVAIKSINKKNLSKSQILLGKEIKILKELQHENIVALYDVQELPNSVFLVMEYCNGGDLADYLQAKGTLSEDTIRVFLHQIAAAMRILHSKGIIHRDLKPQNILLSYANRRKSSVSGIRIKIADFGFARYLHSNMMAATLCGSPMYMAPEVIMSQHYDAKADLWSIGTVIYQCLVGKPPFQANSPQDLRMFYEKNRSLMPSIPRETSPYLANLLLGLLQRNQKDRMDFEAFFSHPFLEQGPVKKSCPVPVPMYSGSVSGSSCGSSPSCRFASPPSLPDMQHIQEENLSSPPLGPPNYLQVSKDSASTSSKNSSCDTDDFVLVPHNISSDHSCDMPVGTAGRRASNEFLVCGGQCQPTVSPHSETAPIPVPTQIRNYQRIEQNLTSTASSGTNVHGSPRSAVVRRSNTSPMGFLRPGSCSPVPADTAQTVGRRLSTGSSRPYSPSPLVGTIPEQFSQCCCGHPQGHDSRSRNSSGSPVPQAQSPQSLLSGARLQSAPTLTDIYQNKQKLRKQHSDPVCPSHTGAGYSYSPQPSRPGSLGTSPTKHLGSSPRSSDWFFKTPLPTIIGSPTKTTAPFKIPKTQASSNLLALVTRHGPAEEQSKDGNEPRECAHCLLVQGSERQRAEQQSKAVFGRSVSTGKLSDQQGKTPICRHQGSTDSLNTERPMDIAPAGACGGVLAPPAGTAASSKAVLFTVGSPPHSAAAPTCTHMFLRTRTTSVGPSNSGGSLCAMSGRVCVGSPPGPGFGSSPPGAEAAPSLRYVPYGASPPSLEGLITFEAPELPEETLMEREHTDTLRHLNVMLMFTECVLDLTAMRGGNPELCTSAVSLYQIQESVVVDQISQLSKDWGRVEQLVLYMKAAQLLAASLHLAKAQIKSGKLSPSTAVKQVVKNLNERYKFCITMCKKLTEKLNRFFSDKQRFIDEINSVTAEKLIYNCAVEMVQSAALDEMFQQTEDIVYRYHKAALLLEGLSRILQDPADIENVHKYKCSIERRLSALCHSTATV
The assay is described as follows: Inhibition of human recombinant ULK2 at 15 nM in presence of ATP by radiometric assay relative to control.

Assay [8] concerns the target Dual specificity tyrosine-phosphorylation-regulated kinase 1B (Homo sapiens) (UniProt Q9Y463). The assay is described as follows: Inhibition of human recombinant DYRK1B at 15 nM related to control ULK1.

Chain of TRAF2 and NCK-interacting protein kinase (Homo sapiens) (Q9UKE5 whole entry, looked up): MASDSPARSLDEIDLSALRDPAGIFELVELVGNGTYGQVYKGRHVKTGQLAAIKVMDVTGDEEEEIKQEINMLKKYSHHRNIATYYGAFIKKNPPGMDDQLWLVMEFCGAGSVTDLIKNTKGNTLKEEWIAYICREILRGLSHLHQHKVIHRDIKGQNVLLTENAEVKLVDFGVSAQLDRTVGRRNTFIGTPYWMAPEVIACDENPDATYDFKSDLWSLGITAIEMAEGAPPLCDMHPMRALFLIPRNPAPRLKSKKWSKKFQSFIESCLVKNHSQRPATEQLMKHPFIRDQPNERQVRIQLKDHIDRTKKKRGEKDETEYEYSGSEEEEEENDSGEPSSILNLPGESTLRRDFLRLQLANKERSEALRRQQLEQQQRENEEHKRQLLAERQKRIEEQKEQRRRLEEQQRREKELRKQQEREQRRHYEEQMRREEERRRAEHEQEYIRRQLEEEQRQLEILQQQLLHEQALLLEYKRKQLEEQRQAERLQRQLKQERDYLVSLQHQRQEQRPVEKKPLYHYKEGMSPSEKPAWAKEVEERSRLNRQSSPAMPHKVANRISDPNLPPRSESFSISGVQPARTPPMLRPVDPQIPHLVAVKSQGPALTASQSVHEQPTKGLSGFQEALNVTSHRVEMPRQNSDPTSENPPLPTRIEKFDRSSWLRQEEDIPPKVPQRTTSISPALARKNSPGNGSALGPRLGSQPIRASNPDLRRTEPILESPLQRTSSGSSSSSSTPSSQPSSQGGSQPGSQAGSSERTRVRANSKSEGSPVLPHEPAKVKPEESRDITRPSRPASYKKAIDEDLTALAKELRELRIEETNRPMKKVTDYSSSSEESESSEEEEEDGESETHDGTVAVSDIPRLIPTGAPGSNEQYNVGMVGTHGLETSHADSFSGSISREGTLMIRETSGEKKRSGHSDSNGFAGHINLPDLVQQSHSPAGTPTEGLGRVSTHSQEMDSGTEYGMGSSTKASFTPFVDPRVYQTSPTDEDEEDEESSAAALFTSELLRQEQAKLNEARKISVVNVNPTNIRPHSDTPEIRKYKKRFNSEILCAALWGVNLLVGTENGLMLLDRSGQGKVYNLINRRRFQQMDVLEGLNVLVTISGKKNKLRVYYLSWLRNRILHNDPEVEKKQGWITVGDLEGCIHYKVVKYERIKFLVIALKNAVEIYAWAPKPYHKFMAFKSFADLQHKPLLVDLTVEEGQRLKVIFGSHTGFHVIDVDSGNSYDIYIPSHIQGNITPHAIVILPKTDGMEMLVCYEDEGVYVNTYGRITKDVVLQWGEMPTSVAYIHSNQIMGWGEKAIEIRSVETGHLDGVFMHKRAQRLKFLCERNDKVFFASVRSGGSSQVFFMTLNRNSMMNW
Chain of G protein-coupled receptor kinase 6 (Homo sapiens) (P43250 whole entry, looked up): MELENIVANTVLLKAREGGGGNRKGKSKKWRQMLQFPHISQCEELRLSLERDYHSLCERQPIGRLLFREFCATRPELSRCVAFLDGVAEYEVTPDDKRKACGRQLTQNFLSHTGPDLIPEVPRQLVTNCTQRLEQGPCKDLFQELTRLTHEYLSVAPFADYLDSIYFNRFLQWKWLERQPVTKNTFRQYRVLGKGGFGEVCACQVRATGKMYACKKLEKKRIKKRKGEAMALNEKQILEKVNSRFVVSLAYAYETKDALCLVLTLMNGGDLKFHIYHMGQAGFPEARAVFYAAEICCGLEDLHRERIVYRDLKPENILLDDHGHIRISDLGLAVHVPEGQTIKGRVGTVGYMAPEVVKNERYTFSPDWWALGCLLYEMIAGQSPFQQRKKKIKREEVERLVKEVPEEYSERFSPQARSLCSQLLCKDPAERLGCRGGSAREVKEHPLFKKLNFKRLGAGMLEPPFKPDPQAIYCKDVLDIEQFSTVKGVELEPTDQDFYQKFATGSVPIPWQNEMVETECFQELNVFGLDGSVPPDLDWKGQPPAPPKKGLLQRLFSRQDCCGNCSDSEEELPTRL
Chain of Serine/threonine-protein kinase tousled-like 2 (Homo sapiens) (Q86UE8 whole entry, looked up): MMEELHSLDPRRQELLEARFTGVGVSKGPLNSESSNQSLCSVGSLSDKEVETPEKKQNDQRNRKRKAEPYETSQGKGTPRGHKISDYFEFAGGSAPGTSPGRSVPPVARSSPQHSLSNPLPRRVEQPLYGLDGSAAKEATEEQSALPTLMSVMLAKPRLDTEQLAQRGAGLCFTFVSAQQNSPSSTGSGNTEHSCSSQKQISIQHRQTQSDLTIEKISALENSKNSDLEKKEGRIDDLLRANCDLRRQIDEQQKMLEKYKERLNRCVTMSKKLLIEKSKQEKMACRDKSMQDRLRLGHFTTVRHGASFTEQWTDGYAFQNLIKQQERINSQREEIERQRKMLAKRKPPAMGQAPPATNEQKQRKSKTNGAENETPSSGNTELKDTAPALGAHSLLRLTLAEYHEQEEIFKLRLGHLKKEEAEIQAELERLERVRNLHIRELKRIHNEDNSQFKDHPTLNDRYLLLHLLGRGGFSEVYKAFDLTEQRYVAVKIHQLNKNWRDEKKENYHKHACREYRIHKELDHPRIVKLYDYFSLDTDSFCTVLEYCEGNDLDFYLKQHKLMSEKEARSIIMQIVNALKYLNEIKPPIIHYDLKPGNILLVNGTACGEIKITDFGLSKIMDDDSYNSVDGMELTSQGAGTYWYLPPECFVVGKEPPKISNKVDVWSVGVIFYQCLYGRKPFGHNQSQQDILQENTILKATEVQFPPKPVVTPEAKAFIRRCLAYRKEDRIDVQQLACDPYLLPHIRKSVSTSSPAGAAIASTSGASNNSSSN
Chain of Dual specificity tyrosine-phosphorylation-regulated kinase 1B (Homo sapiens) (Q9Y463 whole entry, looked up): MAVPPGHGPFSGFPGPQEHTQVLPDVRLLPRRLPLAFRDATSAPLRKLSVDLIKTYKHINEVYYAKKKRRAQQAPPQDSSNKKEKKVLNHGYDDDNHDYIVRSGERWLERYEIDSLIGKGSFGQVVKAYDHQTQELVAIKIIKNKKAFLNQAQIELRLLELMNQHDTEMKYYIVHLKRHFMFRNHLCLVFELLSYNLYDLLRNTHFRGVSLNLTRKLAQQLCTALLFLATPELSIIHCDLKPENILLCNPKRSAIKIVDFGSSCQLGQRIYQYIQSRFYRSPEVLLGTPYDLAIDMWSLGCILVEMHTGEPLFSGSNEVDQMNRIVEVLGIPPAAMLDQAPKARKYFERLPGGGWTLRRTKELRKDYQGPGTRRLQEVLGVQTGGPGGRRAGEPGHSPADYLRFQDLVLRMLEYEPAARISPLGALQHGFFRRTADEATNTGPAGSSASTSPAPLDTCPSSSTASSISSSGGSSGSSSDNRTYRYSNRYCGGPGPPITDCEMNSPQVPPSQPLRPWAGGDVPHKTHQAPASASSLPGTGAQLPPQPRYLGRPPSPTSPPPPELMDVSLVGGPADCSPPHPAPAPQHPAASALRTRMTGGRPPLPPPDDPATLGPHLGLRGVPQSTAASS

For the compound `O=C(N[C@@H](C1CC1)C(F)(F)F)c1cc(-c2cnn3cc(-c4ccc(F)cc4)cnc23)cs1`, the fold change (FC) in assay [1] and in assay [2] was 0 throughout.

As a reminder, the inhibition is the share of the control response that was lost under treatment. Take `CNC(=O)c1ccccc1Oc1nc(Nc2cc(OC)c(OC)c(OC)c2)ncc1Br`: the inhibition in assay [3] was found to be 1%; in assay [5], 4%. The fold change (FC) in assay [4] came out at 0.16; in assay [6], 0.04.

Consider `CC(C)[C@H](NC(=O)c1cc(-c2cnn3cc(-c4ccc(OCCN5CCCCC5)cc4)cnc23)cs1)C(F)(F)F`, for which the inhibition in assay [7] worked out at 73%. Moreover, in assay [8], the fold change (FC) turned out to be 0.74.
